From PubChem BioAssay (NCI) come the findings set out here.

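Tested at 5 concentrations; 48 h exposure; 96-well plates; endpoints linearly interpolated, else capped at highest concentration. At the GI50, growth is halved. The concentration for full growth arrest is given as TGI.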

The experiment deals with MDA-MB-468 breast. The experiment can be described thus: DTP human tumour cell line panel, 48 h.
The term GI50 denotes the concentration giving 50% growth inhibition. A word on the TGI: it is the concentration giving total growth inhibition. A low value points to more potent growth arrest. Turning to `CCCCCCCCCCCCNC(=O)N[C@H](C(=O)N[C@H]1/C=C/OCCNC(=O)/C=C/[C@H](C(C)C)NC1=O)C(C)C`, the GI50 is 898 nM and the TGI was determined as 6740 nM.
Regarding `N#CSc1c[nH]c2cccc(/C=C/C(=O)/C=C(O)/C=C/c3cccc4[nH]cc(SC#N)c34)c12`, the GI50 was 496 nM and the TGI is 1220 nM.
The matching figures for `COc1ncc(-c2ccc3nc(N)n(-c4ccccc4C(F)(F)F)c(=O)c3c2)cc1S(=O)(=O)Nc1ccc(F)cc1F`: 853 nM and 2920 nM.
On to `CN(C)CCCn1c2c(c3ccc(N4CCNCC4)cc3c1=O)C(=O)c1ccccc1-2`, for which the GI50 was 949 nM and the TGI came out at 2410 nM.
On to `OC1(c2ccccc2)c2ccccc2N(c2ccccc2)c2ccc(Cl)cc21` (stereo not given), for which the GI50 is 86.4 nM and the TGI is 317 nM.
